Measurements: patent US10222368B2 (priority 2012, dated 2019)

Molecular target: T1, α7nAChR-FLNA complex (Homo sapiens, UniProt P21333)
T1 construct: To determine the levels of FLNA-α7nAChR, FLNA-TLR4 and α7nAChR-Aβ42 complexes in the lymphocytes; endogenous in cells; host or cells: lymphocytes from venous blood of AD patients and control subjects (ex vivo)
Assay: α7nAChR/FLNA ELISA of lymphocyte lysates (Example 7)
Format: cell-based
Conditions: for Optical Density α7nAChR/FLNA (OD450), average: AD lymphocytes + 10 μM C0105, four replicate studies, background subtracted
Method: The capture antibody was the mouse anti-human Filamin A SC-17749 (Santa Cruz Biotechnology), and rabbit anti-human α7nAChR SC-5544 (Santa Cruz Biotechnology Santa Cruz Biotechnology) as the detection antibody. The assays were carried out in Santa Cruz Flat Bottom Plates.
PBS buffer used was 1×PBS (Mg-, and Ca-free) from Thermo Scientific, whereas PBST was 1×PBS+0.05% Tween®-20.
Coating buffer was prepared by dissolving 1.59 g of Na2CO3 in 0.9 L distilled H2O, to which was added 0.1 g NaN3 and 3.93 g of NaHCO3. The pH value was adjusted to 9.6, and the volume adjusted to 1 L with additional distilled H2O. Santa Cruz BSA blocking buffer supplemented with 1% BSA (sc-293965).
The HRP Detection Reagent (TMB) was prepared using 1-Step Ultra TMB-ELISA, (Cat#34028; Thermo Scientific). Standard protocol using 100 μl of the TMB substrate solution per each microplate well, followed by 10-15 minute incubation (or until color develops) and stopping reaction by adding 100 μl of 2 M sulfuric acid to each well. Absorbance (OD450) measured at 450 nm. Santa Cruz BSA blocking buffer was used supplemented with 1% BSA (SC-293965), and assays were carried out using a Molecular Devices Spectramax™ PLUS ELISA plate reader at 450 nm.
AD patient samples: 20 microtubes (labeled #1-#20; 100 ul volume each) with AD patients lymphocytes were received frozen on dry ice. Samples were kept at −20° C. freezer for 1 hour, following thawing at 4° C. […] Ice-cold PBS (300 μl) was added and entire contents were centrifuged to remove insoluble debris.
Normal patient sample was prepared by following procedure: 8 mL of venous blood was collected into cat#362761 BD Vacutainer™ CPT tube (cell preparation tube with sodium citrate) and following manufacturer's recommended protocol for white blood cells isolation (including two centrifugation/PBS wash steps). […] Ice-cold PBS (300 μl) was added and entire content was centrifuged to remove insoluble debris, resulting in “NP sample”.
Compound C0105 treatment was performed using AD patient white blood cells resuspended in 1×PBS and treated with: a) 10 μM Compound C0105 (final concentration), and b) control (PBS only) for 60 minutes at 37° C. (total volume is 400 μl of each sample).
Anti-Filamin A antibody (SC-17749) was diluted in Coating Buffer (at dilution ratio of 1:30) and 100 μl sample loaded per well and incubated 2.5 hours at room temperature (RT). The plate was covered with adhesive cover to prevent evaporation. Followed by washing of the microtiter plate with 150 μl of Blocking Buffer (supplemented with 1% BSA) and added 100 μl of Blocking Buffer to the wells for 30 minutes at RT.
AD samples (AD patients lymphocytes, as described above) were used to generate serial dilution series samples (dilution performed in PBS) and 100 μl sample loaded per well and incubated 1 hour at RT (total protein concentration is indicated as established by Bradford assay, as described above). The plate was covered with adhesive cover to prevent evaporation, followed by washing each well two times with 160 μl PBST Buffer.
After washing of the microtiter plate with washing buffer, 100 μl of α7nAChR primary antibody (SC-5544) were added per well (1:50 dilution ratio) in 1×PBS and incubated for 1 hour at RT.

T1 sequence (P21333 2-2647 limits assumed, one chain of several): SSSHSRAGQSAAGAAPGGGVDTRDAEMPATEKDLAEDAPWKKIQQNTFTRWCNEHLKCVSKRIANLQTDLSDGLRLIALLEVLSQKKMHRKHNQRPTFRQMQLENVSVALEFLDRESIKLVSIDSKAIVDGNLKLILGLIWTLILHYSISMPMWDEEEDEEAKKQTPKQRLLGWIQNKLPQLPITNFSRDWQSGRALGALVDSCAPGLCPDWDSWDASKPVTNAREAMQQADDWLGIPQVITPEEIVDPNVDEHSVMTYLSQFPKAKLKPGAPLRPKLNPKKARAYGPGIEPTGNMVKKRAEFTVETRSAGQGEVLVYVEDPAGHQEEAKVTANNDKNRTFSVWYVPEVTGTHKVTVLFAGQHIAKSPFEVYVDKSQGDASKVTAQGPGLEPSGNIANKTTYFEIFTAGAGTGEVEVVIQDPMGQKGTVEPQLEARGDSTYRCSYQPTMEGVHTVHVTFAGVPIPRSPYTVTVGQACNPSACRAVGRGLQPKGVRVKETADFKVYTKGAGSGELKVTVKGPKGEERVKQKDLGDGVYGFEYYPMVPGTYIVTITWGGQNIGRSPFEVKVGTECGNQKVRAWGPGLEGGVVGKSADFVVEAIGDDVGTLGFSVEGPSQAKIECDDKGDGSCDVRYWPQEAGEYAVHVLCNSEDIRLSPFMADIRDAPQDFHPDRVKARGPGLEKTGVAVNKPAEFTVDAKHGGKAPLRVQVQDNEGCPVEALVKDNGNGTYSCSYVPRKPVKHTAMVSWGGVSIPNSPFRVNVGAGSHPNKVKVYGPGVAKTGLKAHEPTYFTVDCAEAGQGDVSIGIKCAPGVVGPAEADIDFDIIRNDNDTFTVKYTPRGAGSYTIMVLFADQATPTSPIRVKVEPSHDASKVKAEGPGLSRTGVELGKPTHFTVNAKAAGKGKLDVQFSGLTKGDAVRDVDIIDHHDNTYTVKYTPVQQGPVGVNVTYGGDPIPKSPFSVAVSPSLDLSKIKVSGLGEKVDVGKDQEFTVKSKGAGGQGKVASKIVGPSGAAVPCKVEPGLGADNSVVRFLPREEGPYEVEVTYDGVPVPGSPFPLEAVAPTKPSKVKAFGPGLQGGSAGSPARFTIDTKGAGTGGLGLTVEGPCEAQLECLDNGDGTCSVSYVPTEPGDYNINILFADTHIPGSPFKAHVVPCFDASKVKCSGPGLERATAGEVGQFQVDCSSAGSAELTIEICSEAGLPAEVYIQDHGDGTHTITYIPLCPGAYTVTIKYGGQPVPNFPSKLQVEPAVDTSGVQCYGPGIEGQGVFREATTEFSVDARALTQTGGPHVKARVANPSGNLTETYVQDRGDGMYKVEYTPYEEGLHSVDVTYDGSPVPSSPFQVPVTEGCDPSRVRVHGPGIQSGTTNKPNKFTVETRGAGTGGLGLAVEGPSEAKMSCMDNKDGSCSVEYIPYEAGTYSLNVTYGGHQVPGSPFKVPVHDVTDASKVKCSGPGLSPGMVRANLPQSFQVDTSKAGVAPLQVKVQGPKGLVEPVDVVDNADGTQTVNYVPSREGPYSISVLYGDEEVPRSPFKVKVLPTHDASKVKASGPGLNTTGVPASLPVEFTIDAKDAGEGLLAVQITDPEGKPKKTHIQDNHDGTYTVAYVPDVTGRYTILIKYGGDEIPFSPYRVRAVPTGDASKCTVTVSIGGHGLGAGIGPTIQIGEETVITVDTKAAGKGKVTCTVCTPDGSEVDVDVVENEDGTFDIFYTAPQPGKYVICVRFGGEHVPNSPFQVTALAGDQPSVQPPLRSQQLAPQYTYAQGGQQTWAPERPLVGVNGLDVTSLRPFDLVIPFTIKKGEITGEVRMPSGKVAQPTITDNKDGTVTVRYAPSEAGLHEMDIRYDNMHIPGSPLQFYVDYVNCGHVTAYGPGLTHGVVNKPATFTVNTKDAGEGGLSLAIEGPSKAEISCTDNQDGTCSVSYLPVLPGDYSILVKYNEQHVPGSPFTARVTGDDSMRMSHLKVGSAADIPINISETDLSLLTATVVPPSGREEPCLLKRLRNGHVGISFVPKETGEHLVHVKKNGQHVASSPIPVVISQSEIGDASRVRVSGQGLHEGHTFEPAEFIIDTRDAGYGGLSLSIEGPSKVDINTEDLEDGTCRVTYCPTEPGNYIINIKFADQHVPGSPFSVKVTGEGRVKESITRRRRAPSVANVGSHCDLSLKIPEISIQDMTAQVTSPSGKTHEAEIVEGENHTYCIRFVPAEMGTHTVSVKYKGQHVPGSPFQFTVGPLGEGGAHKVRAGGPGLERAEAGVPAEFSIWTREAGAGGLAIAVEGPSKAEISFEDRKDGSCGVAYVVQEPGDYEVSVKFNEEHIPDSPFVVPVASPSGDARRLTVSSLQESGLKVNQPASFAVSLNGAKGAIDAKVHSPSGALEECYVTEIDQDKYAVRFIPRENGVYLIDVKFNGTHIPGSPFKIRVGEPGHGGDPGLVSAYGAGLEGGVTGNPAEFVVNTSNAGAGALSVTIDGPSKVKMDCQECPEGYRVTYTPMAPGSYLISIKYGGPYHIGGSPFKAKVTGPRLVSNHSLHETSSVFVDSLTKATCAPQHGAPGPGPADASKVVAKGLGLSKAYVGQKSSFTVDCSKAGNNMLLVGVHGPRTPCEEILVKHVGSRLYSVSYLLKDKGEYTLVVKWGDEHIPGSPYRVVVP

For `CN1CCC2(CC1)NCC(=O)N2Cc1ccccc1` [Compound C0105], which “Effect on amount of α7nAChR associated with FLNA (in words)” value (10 μM, AD lymphocytes) is on record?
The value was “significant reduction”.

What about the “Effect on amount of α7nAChR/FLNA complex (in words)” value (10 μM, YCI lymphocyte preparation) of the same molecule?
The value was “substantially no difference”.

And the “Optical Density α7nAChR/FLNA (OD450), average” value (“Optical Density α7nAChR/FLNA” below) (1.25 (mg) lysate per well)?
The value was 0.1572.

What about the “Optical Density α7nAChR/FLNA” value (2.5 (mg) lysate per well) of the same molecule?
The value was 0.2261.

And the “Optical Density α7nAChR/FLNA” value (5 (mg) lysate per well)?
Its value is 0.291.

What about the “Optical Density α7nAChR/FLNA” value (10 (mg) lysate per well) of the same molecule?
Its value is 0.3349.

What about the “Optical Density α7nAChR/FLNA” value (20 (mg) lysate per well) of the same molecule?
The value was 0.4504.
